Source: ChEMBL document CHEMBL1201862, “PubChem BioAssay data set” (2004)
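48-hour exposure; five concentrations; linearly interpolated endpoints. The concentration for 50% growth inhibition is given as GI50.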 Activity calls are given as the source filed them. No stated cut-off is given here; in the data, active = GI50 up to about 1.1 µM and inactive = higher.

Key:
Test in all cases: inhibition of tumour cell growth, NCI panel, 48 h
HOP-92 = tested on: HOP-92
T47D = tested on: T47D
Hs-578T = tested on: Hs-578T
MDA-N = tested on: MDA-N
PC-3 = tested on: PC-3
786-0 = tested on: 786-0
SR = tested on: SR
MCF7 = tested on: MCF7
NCI/ADR-RES = tested on: NCI/ADR-RES
HCT-15 = tested on: HCT-15
HOP-62 = tested on: HOP-62
SW-620 = tested on: SW-620
RPMI-8226 = tested on: RPMI-8226
MOLT-4 = tested on: MOLT-4
MDA-MB-231 = tested on: MDA-MB-231
MDA-MB-435 = tested on: MDA-MB-435
TK-10 = tested on: TK-10
EKVX = tested on: EKVX
IGROV-1 = tested on: IGROV-1
NCI-H522 = tested on: NCI-H522
KM12 = tested on: KM12
SK-MEL-5 = tested on: SK-MEL-5
LOX IMVI = tested on: LOX IMVI
ACHN = tested on: ACHN
NCI-H460 = tested on: NCI-H460
NCI-H23 = tested on: NCI-H23
CCRF-CEM = tested on: CCRF-CEM
SF-539 = tested on: SF-539
SK-OV-3 = tested on: SK-OV-3
UO-31 = tested on: UO-31
SF-295 = tested on: SF-295
U-251 = tested on: U-251
SNB-19 = tested on: SNB-19
DU-145 = tested on: DU-145
HCT-116 = tested on: HCT-116
UACC-62 = tested on: UACC-62
OVCAR-5 = tested on: OVCAR-5
OVCAR-3 = tested on: OVCAR-3
SF-268 = tested on: SF-268
M14 = tested on: M14
UACC-257 = tested on: UACC-257
OVCAR-8 = tested on: OVCAR-8
SK-MEL-2 = tested on: SK-MEL-2
COLO 205 = tested on: COLO 205
Malme-3M = tested on: Malme-3M
BT-549 = tested on: BT-549
SN12C = tested on: SN12C
A549 = tested on: A549
HT-29 = tested on: HT-29
OVCAR-4 = tested on: OVCAR-4
K562 = tested on: K562
HCC 2998 = tested on: HCC 2998
NCI-H226 = tested on: NCI-H226
HL-60 = tested on: HL-60
CAKI-1 = tested on: CAKI-1
RXF 393 = tested on: RXF 393
SNB-75 = tested on: SNB-75
SK-MEL-28 = tested on: SK-MEL-28

With `Cc1c(OCc2ccccc2)c(=O)ccn1CCc1c[nH]c2ccccc12` the GI50 (HOP-92) was 14.4 µM (inactive), the GI50 (T47D) was 17.3 µM (inactive) and the GI50 (Hs-578T) was 27.2 µM (inactive). For the same compound, the GI50 (MDA-N) was 28.7 µM (inactive), the GI50 (PC-3) was 30.9 µM (inactive) and the GI50 (786-0) was 33.9 µM (inactive). The GI50 (SR) was 27.6 µM (inactive), the GI50 (MCF7) was 18.5 µM (inactive) and the GI50 (NCI/ADR-RES) was 86.7 µM (inactive). The GI50 (HCT-15) was 74.8 µM, the GI50 (HOP-62) was > 100 µM (inactive) and the GI50 (SW-620) was 36.1 µM (inactive). The GI50 (RPMI-8226) was 31.9 µM (inactive), the GI50 (MOLT-4) was 1.9 µM (inactive) and the GI50 (MDA-MB-231) was 34.1 µM (inactive). For the same compound, the GI50 (MDA-MB-435) was 20 µM (inactive), the GI50 (TK-10) was 40.6 µM (inactive) and the GI50 (EKVX) was 41.3 µM (inactive). For the same compound, the GI50 (IGROV-1) was 26.6 µM (inactive), the GI50 (NCI-H522) was 21.3 µM (inactive) and the GI50 (KM12) was 33.7 µM (inactive). The GI50 (SK-MEL-5) was 18.3 µM (inactive), the GI50 (LOX IMVI) was 44.6 µM (inactive) and the GI50 (ACHN) was > 100 µM (inactive). The GI50 (NCI-H460) was 33.7 µM (inactive), the GI50 (NCI-H23) was 37.6 µM (inactive) and the GI50 (CCRF-CEM) was 40.7 µM (inactive). For the same compound, the GI50 (SF-539) was 43.4 µM (inactive), the GI50 (SK-OV-3) was > 100 µM (inactive) and the GI50 (UO-31) was 43.1 µM (inactive). For the same compound, the GI50 (SF-295) was 56.4 µM (inactive), the GI50 (U-251) was 29.6 µM (inactive) and the GI50 (SNB-19) was 32.7 µM (inactive). For the same compound, the GI50 (DU-145) was 25.9 µM (inactive), the GI50 (HCT-116) was 38.3 µM (inactive) and the GI50 (UACC-62) was 27.4 µM (inactive). For the same compound, the GI50 (OVCAR-5) was 65.9 µM (inactive), the GI50 (OVCAR-3) was 18.5 µM (inactive) and the GI50 (SF-268) was 19.2 µM (inactive). The GI50 (M14) was 30 µM (inactive), the GI50 (UACC-257) was 73.8 µM (inactive) and the GI50 (OVCAR-8) was 53 µM (inactive). The GI50 (SK-MEL-2) was 19 µM (inactive), the GI50 (COLO 205) was 16.4 µM (inactive) and the GI50 (Malme-3M) was 22.1 µM (inactive). For the same compound, the GI50 (BT-549) was 44.6 µM (inactive), the GI50 (SN12C) was 45.6 µM (inactive) and the GI50 (A549) was 36.6 µM (inactive). For the same compound, the GI50 (HT-29) was 23.3 µM (inactive).
In the case of `CC1=C(C(=O)OC(C)C)C(c2ccccc2C(F)(F)F)C(C(=O)OC(CO[N+](=O)[O-])CO[N+](=O)[O-])=C(C)N1` (stereo not given), the GI50 (T47D) is reported as 3.83 µM (inactive), the GI50 (Hs-578T) is reported as 15.8 µM (inactive) and the GI50 (MDA-N) is reported as 4.61 µM (inactive). For the same compound, the GI50 (PC-3) was 2.56 µM (inactive), the GI50 (786-0) was 2.87 µM (inactive) and the GI50 (SR) was 5 µM (inactive). The GI50 (MCF7) was 4.22 µM (inactive), the GI50 (NCI/ADR-RES) was 4.39 µM (inactive) and the GI50 (HCT-15) was 7.96 µM. For the same compound, the GI50 (HOP-62) was 11 µM (inactive), the GI50 (SW-620) was 5.79 µM (inactive) and the GI50 (RPMI-8226) was 3.94 µM (inactive). The GI50 (MOLT-4) was 2.17 µM (inactive), the GI50 (MDA-MB-231) was 12.3 µM (inactive) and the GI50 (MDA-MB-435) was 6.28 µM (inactive). The GI50 (TK-10) was 23.9 µM (inactive), the GI50 (EKVX) was 13.3 µM (inactive) and the GI50 (IGROV-1) was 9.29 µM (inactive). For the same compound, the GI50 (OVCAR-4) was 5.3 µM (inactive), the GI50 (NCI-H522) was 3.35 µM (inactive) and the GI50 (KM12) was 5.14 µM (inactive). For the same compound, the GI50 (SK-MEL-5) was 5.52 µM (inactive), the GI50 (K562) was 2.69 µM (inactive) and the GI50 (LOX IMVI) was 4.61 µM (inactive). The GI50 (ACHN) was 4.79 µM (inactive), the GI50 (NCI-H460) was 5.19 µM (inactive) and the GI50 (NCI-H23) was 12.7 µM (inactive). For the same compound, the GI50 (HCC 2998) was 21.6 µM (inactive), the GI50 (CCRF-CEM) was 2.72 µM (inactive) and the GI50 (SF-539) was 9.48 µM (inactive). The GI50 (SK-OV-3) was 11.2 µM (inactive), the GI50 (UO-31) was 1.95 µM (inactive) and the GI50 (SF-295) was 4.21 µM (inactive). For the same compound, the GI50 (U-251) was 8.26 µM (inactive), the GI50 (SNB-19) was 14.7 µM (inactive) and the GI50 (NCI-H226) was 13.7 µM (inactive). The GI50 (HL-60) was 95.5 µM (inactive), the GI50 (DU-145) was 16.6 µM (inactive) and the GI50 (HCT-116) was 3.76 µM (inactive). For the same compound, the GI50 (UACC-62) was 3.99 µM (inactive), the GI50 (OVCAR-5) was 19.3 µM (inactive) and the GI50 (CAKI-1) was 9.98 µM (inactive). For the same compound, the GI50 (OVCAR-3) was 9.31 µM (inactive), the GI50 (SF-268) was 8.63 µM (inactive) and the GI50 (M14) was 6.98 µM (inactive). The GI50 (UACC-257) was 6.34 µM (inactive), the GI50 (OVCAR-8) was 8.13 µM (inactive) and the GI50 (SK-MEL-2) was 14.1 µM (inactive). The GI50 (RXF 393) was 9.16 µM (inactive), the GI50 (COLO 205) was 10.2 µM (inactive) and the GI50 (Malme-3M) was 12.2 µM (inactive). The GI50 (BT-549) was 5.11 µM (inactive), the GI50 (SN12C) was 4.09 µM (inactive) and the GI50 (SNB-75) was 2.21 µM (inactive). For the same compound, the GI50 (SK-MEL-28) was 16.8 µM (inactive), the GI50 (A549) was 3.92 µM (inactive) and the GI50 (HT-29) was 5.79 µM (inactive).
For `N=c1oc2cc(O)ccc2cc1C(=O)NCc1ccccc1`, the GI50 (T47D) was 8.61 µM (inactive), the GI50 (Hs-578T) was 15.3 µM (inactive) and the GI50 (MDA-N) was 19.3 µM (inactive). The GI50 (PC-3) was 28.4 µM (inactive), the GI50 (786-0) was 32.1 µM (inactive) and the GI50 (SR) was 11.9 µM (inactive). The GI50 (MCF7) was 33.2 µM (inactive), the GI50 (NCI/ADR-RES) was 19.7 µM (inactive) and the GI50 (HCT-15) was 27.2 µM. For the same compound, the GI50 (HOP-62) was 31.1 µM (inactive), the GI50 (SW-620) was 22.6 µM (inactive) and the GI50 (RPMI-8226) was 10.7 µM (inactive). The GI50 (MOLT-4) was 15.7 µM (inactive), the GI50 (MDA-MB-231) was 24 µM (inactive) and the GI50 (MDA-MB-435) was 17.7 µM (inactive). The GI50 (TK-10) was 32.1 µM (inactive), the GI50 (EKVX) was 32.8 µM (inactive) and the GI50 (IGROV-1) was 21.3 µM (inactive). For the same compound, the GI50 (OVCAR-4) was 31.6 µM (inactive), the GI50 (NCI-H522) was 16.3 µM (inactive) and the GI50 (KM12) was 32.3 µM (inactive). For the same compound, the GI50 (SK-MEL-5) was 12.9 µM (inactive), the GI50 (K562) was 10.3 µM (inactive) and the GI50 (LOX IMVI) was 29.5 µM (inactive). The GI50 (ACHN) was 14.5 µM (inactive), the GI50 (NCI-H460) was 25.8 µM (inactive) and the GI50 (NCI-H23) was 19.5 µM (inactive). The GI50 (CCRF-CEM) was 9.42 µM (inactive), the GI50 (SF-539) was 21.9 µM (inactive) and the GI50 (SK-OV-3) was 16.2 µM (inactive). The GI50 (UO-31) was 25.6 µM (inactive), the GI50 (SF-295) was 35.2 µM (inactive) and the GI50 (U-251) was 18.7 µM (inactive). The GI50 (SNB-19) was 23.7 µM (inactive), the GI50 (NCI-H226) was 32.8 µM (inactive) and the GI50 (DU-145) was 16.6 µM (inactive). The GI50 (HCT-116) was 22.2 µM (inactive), the GI50 (OVCAR-5) was 53.7 µM (inactive) and the GI50 (CAKI-1) was 20.3 µM (inactive). For the same compound, the GI50 (OVCAR-3) was 22.6 µM (inactive), the GI50 (SF-268) was 23.1 µM (inactive) and the GI50 (M14) was 34.7 µM (inactive). The GI50 (UACC-257) was 44.7 µM (inactive), the GI50 (OVCAR-8) was 27.4 µM (inactive) and the GI50 (SK-MEL-2) was 14.4 µM (inactive). The GI50 (RXF 393) was 19.5 µM (inactive), the GI50 (COLO 205) was 12.4 µM (inactive) and the GI50 (Malme-3M) was 21.7 µM (inactive). The GI50 (BT-549) was 17.3 µM (inactive), the GI50 (SN12C) was 19.5 µM (inactive) and the GI50 (SNB-75) was 8.85 µM (inactive). For the same compound, the GI50 (SK-MEL-28) was 27.6 µM (inactive), the GI50 (A549) was 31.8 µM (inactive) and the GI50 (HT-29) was 18.8 µM (inactive).
